What was measured:
[1] = system: PNT1A normal prostate; experiment: sulphorhodamine B (SRB) cytotoxicity assay; format: cell-based, human; conditions: for IC50: SRB assay, 72 h incubation, mean ± SEM
Experimental: The cytotoxicity profile of the ruthenium complexes […]-572, and POW-12A was assessed in various cancer cell lines, namely, human cervical cancer HeLa, prostate cancer cell line DU145, breast cancer cell line MDAMB231MB231, ovarian cancer cell line A2780, and cisplatin-resistant ovarian cancer cell line A2780-CP70, using the preferred screen of the National Cancer Institute, the sulphorhodamine (SRB) dye assay, and the trypan blue cell viability assay ([Skehan et al., 1990]; [Houghton et al., 2007]; [Strober, 2001]). To determine their selective toxicity profile, these complexes were also tested in a normal prostate cell line (PTN1A). From the similarity in chemical structures of the compounds, we deduced that a structure-activity relationship study will help elucidate key properties involved in the cytotoxic activity of this class of metal complexes. The sulphorhodamine B (SRB) assay was used to evaluate the cytotoxicity of each cancer line after treating them with the metal complexes in line with the previously established protocol ([Skehan et al., 1990]). A cell density of 3 × 10^4 cells/mL was treated with various concentrations (3, 10, 30, 50, and 100 μM) of each ruthenium complex by 1:200 dilutions of stock solutions (in DMSO) in culture media, using DMSO as a control. Then, 100 μL of the cell-drug suspension was added to the respective wells of a 96-well plate and incubated at 37°C for 72 h in a CO2-containing incubator. Following this, the cells were fixed using 25 ul of Carnoy's solution and left in the fridge (4°C) for 1 h. The plates were then rinsed with running water and tapped on paper to remove dead cells. The cells were then stained with 100 μL of sulphorhodamine B dye and left for 30 min, after which the dye was washed off using 1% acetic acid, and the plate was left to dry in the oven (60°C). The stained cells were then treated with 100 μL of Tris base (10 mM, pH 10) to solubilize the dye stain. Finally, the plates were analyzed using an Omega plate reader. Each assay was conducted in triplicate. % Cell response=Average of treated cells / Average of control cells x 100.

[2] = partition coefficient (log P), shake-flask method; format: physicochemical; conditions: phosphate buffered saline (pH 7.4) / 1-octanol
Description: The role of lipophilicity in the activity of ruthenium (II) polypyridyl complexes is one that has been extensively reported ([Notaro and Gasser, 2017]). […] Based on this, we carried out a partition coefficient (log P) test using a shake-flask method to determine whether the marginal structural differences between VNK-754, VNK-572, and POW-12A affect their lipophilicity and to examine whether such a difference in lipophilicity confers any advantage to their anti-cancer activity. The log P results, as presented in Table 2, clearly show VNK-572 (0.014) and POW-12A (0.077) to be more lipophilic than VNK-754 (−0.874). […] Thus, along with varied DNA intercalating properties, this explains, in part, why there are appreciable differences in the cytotoxic effects of VNK572 and POW12A compared to VNK-754, even though they are generally similar in structure. For example, VNK-572 with an additional benzene ring can penetrate the bi-lipid-layered cell membrane better and achieve higher cellular and nuclear concentrations than VNK-754, producing a greater anti-tumor effect.
To study the lipophilicity of our complexes, we used the shake-flask method at 25.0 °C ± 0.1°C in line with the previously reported protocol ([Dubey et al., 2017]). Equal volumes of the aqueous phase (phosphate buffered saline, pH 7.4) and the 1-octanol phase were pre-saturated with each other overnight. A known amount of the complexes (respectively) was added to the aqueous phase, ensuring our final concentration was within the range of UV spectroscopic analysis; then, an equal volume of the pre-saturated […] phase was added. Both phases were then mixed in a conical flask and left shaking on a thermostatic shaker at a speed of 100 rpm overnight at room temperature. […] Considering that lipophilic compounds will partition into the octanol phase, the concentration of the complexes left in the aqueous phase was analyzed, respectively, by UV spectroscopy; then, the Log P value was calculated: Logp = Log10 ([solute] un-ionized octanol/[solute] un-ionized water).

[3] = system: HeLa cells; experiment: cellular localization by confocal fluorescence microscopy; format: cell-based, human; conditions: 50 μM, 2 h incubation, co-localization with DAPI
Experimental: This was further confirmed by the co-localization of these complexes with a nuclear counterstain (DAPI) (Figure 2).
Fluorescence microscopy was used to study cellular localization. HeLa cells were seeded on autoclaved coverslips in the 6-well plate and incubated at 37°C for 48 h, after which the culture media were replaced with media containing VNK-572 (50 μM) and VNK-754 (50 μM), respectively, and further incubation was performed for 2 h. Following this, the cells were fixed with Carnoy’s solution and washed twice with PBS thereafter. Finally, the HeLa cells were counterstained with DAPI, and the seeded coverslips were inverted and placed on slides for examination. A Leica confocal microscope was used for the observation of the samples using a magnification of ×63.

[4] = system: RF I φX174 supercoiled circular DNA; experiment: supercoiled DNA unwinding by atomic force microscopy; format: binding; conditions: AFM; P/D = 14 for POW-12A and VNK-572, P/D = 5 for VNK-754
Experimental: FIGURE 7 AFM height images RF I φX174 on a magnesium-soaked mica surface over an area of 2 µm. Samples with the ruthenium complex had solution mixing ratios of P/D = 14 for POW-12A and VNK-572; and of P/D = 5 VNK-754.
Samples for atomic force microscopy (AFM) were prepared on mica crystals cut into squares of approximately 1 cm^2. These squares were stuck with double-sided tape to a 15-mm diameter metal disc. Before sample preparation, Cellotape was used to remove the top layer of the mica crystal, giving a freshly cleaved surface layer on which the sample is to be deposited. Mica was soaked in a 0.1 M solution of MgCl2 for 5 min and blown dry, and Mg^2+ was used to help DNA (negatively charged) adhere to the negatively charged surface of the mica. For solutions containing DNA and POW-12A or VNK-572, a P/D value of 14 was used. For the solution containing DNA and VNK-754, a P/D value of 5 was used. Then, 2 μL of the solution was pipetted onto the mica surface and left for 10 min until the solvent had evaporated, leaving the DNA adhered to the surface. To remove excess salt, each sample was washed three times with 10 µL nanopure water, drying with nitrogen after each wash. AFM was conducted using a Bruker Multi-mode 2 atomic force microscope operated with a NanoScope V controller. ScanAsyst-AIR AFM tips were purchased from Bruker. Scans were run in tapping mode using ScanAsyst, measuring height, peak force error, and phase. The spring constant was adjusted to the spring constant of the tip, which is 0.4 N m^−1 for ScanAsyst-AIR tips; feedback parameters were set automatically by ScanAsyst Auto. Scans were run over 2 μm^2 areas with 512 lines. Images were prepared using NanoScope analysis software. Raw data were processed using first-order flattening and third-order plane fitting. If the background required smoothening due to large molecules on the surface, first-order flattening with a threshold of Z < 0.05 nm was used to improve the appearance of the background. […]

Row | LogP [2] | Compound | IC50 [1] | cellular localization [3] | unwinding of supercoiled circular DNA [4] | fold difference in sensitivity between normal prostate cells (PNT1A) and prostate cancer cell line DU145 ([1]; from SRB IC50 values)
1 | 0.077 | F[P-](F)(F)(F)(F)F.F[P-](F)(F)(F)(F)F.[Ru+2].c1cnc2c(c1)c1ncc3c(c1c1cccnc12)CCC3.c1cnc2c(c1)ccc1cccnc12.c1cnc2c(c1)ccc1cccnc12 [POW-12A] | > 100 µM | penetrate the nucleus | unwound | 
2 | 0.014 | F[P-](F)(F)(F)(F)F.F[P-](F)(F)(F)(F)F.[Ru+2].c1cnc2c(c1)c1ncc3c(c1c1cccnc12)CCCC3.c1cnc2c(c1)ccc1cccnc12.c1cnc2c(c1)ccc1cccnc12 [VNK-572] | > 100 µM | penetrate the nucleus | unwound | more than five-fold
